{"source": "patent US11529318B2", "about": "“Devices and methods for local delivery of tacrolimus” (UNIVERSITY OF PITTSBURGH—OF THE COMMONWEALTH SYSTEM OF …, priority 2017, dated 2022)", "key": {"[1]": {"test": "Tacrolimus concentration in whole blood (Example 3)", "format": "in vivo, Lewis rats", "conditions": "Lewis, rat, intraperitoneal, 1 mg/kg, read-out: trough tacrolimus blood levels", "description": "Quantification of Tacrolimus by LC-Tandem Mass Spectrometry (LC-MS/MS). Fifty microliters of blood containing an unknown concentration of Tacrolimus was added to a conical centrifugation tube, followed by 200 μL of zinc sulfate heptahydrate (ZnSO4.7H2O) to precipitate plasma proteins. Five hundred microliters of an acetonitrile based solution containing a deuterated internal standard (ascomycin) at a concentration of 15 ng/ml was then added, and the mixture was vortexed at 3000 rpm for 2 minutes and centrifugated at 13,000 rpm for 3 minutes and the supernatants collected in LCMS vials for analysis.\nAnalysis was performed using a fully validated, reverse phased method for the detection of TAC in blood on a Waters micromass Quattro micro API mass spectrometer that is operated in positive electrospray ionization mode, utilizing multiple reaction monitoring, with an injection volume of 20 μL. The Waters 2795 Alliance Separations Module was equipped with a nova-pack® C18 column, 2.1×10 mm cartridge (Waters #186003523) heated to 55° C. Analytes were effectively separated using a gradient elution consisting of an aqueous mobile phase (95% H2O/5% MeOH) and an organic mobile phase (100% MeOH), at a flow rate of 0.6 mL per minute. Mobile phases also contained 0.1% formic acid (CH2O2) and 2 mM ammonium acetate."}, "[2]": {"test": "Tacrolimus concentration in infra orbital nerves, muscle and PEUU wraps (Example 3)", "format": "in vivo, Lewis rats", "conditions": "Lewis, rat, daily intraperitoneal injections 1 mg/kg for 14 days", "description": "Animals and Surgeries. All animals received care in compliance with the Institutional Animal Care and Use Committee and protocol approval from the University of Pittsburgh and followed guidelines from the Guide for the Care and Use of Laboratory Animals published by the U.S. National Institutes of Health. 10 Lewis rats (RT1) per group (treatment group, non-treatment group), aged 8-10 weeks, were anesthetized with 50 mg/kg intraperitoneal pentobarbital sodium and supplemented as necessary with 10 mg/kg injections. Sterile technique were utilized for all surgeries and a heating pad was used to maintain core animal temperature at 37° C.\nThe surgical procedure is described in depth in Xiao et al., 2016 and is briefly defined here. Proximal to the mystacial pad, an incision was made on the left hemiface distal to where the infraorbital nerve exits from the infraorbital foramen. Tissue was discretely dissected in order to expose the infraorbital branch of the trigeminal nerve and was transected using microscissors. […]\nQuantification of Tacrolimus concentration in infra orbital nerves, muscle, and PEUU wraps. […] Drug concentration was measured by L-CMS/MS and the results were expressed as ng/g of tissue or wrap weight.\nQuantification of Tacrolimus by LC-Tandem Mass Spectrometry (LC-MS/MS). […]"}, "[3]": {"test": "in vivo", "parameters": "species or system Sprague-Dawley rats", "conditions": "Sprague-Dawley, rat, 2.2 mg/kg/day, tacrolimus concentration", "description": "Optic nerve ischemia and PEUU-Tac matrix application. Animals were anesthetized by intraperitoneal injection of 45:10 mg/kg ketamine/xylazine cocktail. Once anaesthetized, the optic nerve was exposed by making a small incision and then creating a nearly bloodless plane through the conjunctiva by blunt dissection with #5 forceps. The surrounding muscle and connective tissue around the optic nerve were then gently separated until the optic nerve was exposed. Using a Yasagril aneurysm clip, the right optic nerve was clamped ˜2 mm behind the globe for 10 seconds (Sarikcioglu, Demir et al. 2007). After removing the clip, ophthalmic artery integrity was confirmed by visualization. For some animals, the optic nerve sheath was fenestrated at the injury site by making an 1-2 mm incision. For animals receiving PEUU-Tac, a 1×5 mm section cut from a 10 mg PEUU-Tac matrix was sutured around the injury site and then secured by suturing to the outer sheath. After each optic nerve procedure, the conjunctiva was sutured and antibiotic ointment (Gentamicin, Bausch & Lomb, Tampa, Fla.) was applied to the eye. In total, twenty-eight animals received acute optic nerve ischemia to the right optic nerve with or without a PEUU-Tac wrap. The experimental groups were as follows: • (1) Five animals received a 1 mm×5 mm section of a 10 mg PEUU-Tac sheet sutured around the nerve. • (2) Five animals received a 1 mm×5 mm section of a 10 mg PEUU-Tac matrix implanted subcutaneously in the lower right quadrant of the abdomen. • (3) Five animals received daily intraperitoneal injections of tacrolimus (2.2 mg/kg/day) for 14 days with the first injection administered immediately after ischemic injury. • (4) Five animals were used as a sham control.\nBlood and tissue collection. Twenty-four hours after injury, blood samples were drawn from all four groups via the tail vein. Four of the eight animals treated with PEUU-Tac were sacrificed at 24 hours and sixteen animals were sacrificed at 14 days. Blood, both retinas and both optic nerves were collected from all animals.\nTacrolimus tissue extraction and reconstitution in blood. Tissue (retina and optic nerve) samples were weighted and homogenized with organic solvent (methanol, 100%) using Mini-BeadBeater-1 sonicator for cell disruption and left over night to assure complete tacrolimus extraction. The homogenate was centrifuged at 2100±100 rpm for 10 min. The methanol was transferred to a microcentrifuge tube and evaporated using a sample concentrator. The drug residue was reconstituted with 1 mL of blood. Tacrolimus in the blood was analyzed as described below and tissue drug concentration was expressed in ng/g of tissue weight.\nQuantification of tacrolimus in blood by HPLC-tandem mass spectrometry. […]"}, "[4]": {"conditions": "reference range; cited from earlier work"}}, "data": [{"smiles": "C=CC[C@@H]1/C=C(\\C)C[C@H](C)C[C@H](OC)[C@H]2O[C@@](O)(C(=O)C(=O)N3CCCC[C@H]3C(=O)O[C@H](/C(C)=C/[C@@H]3CC[C@@H](O)[C@H](OC)C3)[C@H](C)[C@@H](O)CC1=O)[C@H](C)C[C@@H]2OC", "note": "[tacrolimus]", "values": [{"measurement": "concentration at 24 h", "setting": "[1]; 24 hours post systemic injection", "result": "18.8 ± 14.8", "unit": "ng/mL"}, {"measurement": "concentration at 14 days", "setting": "[1]; 14 days, systemically treated animals", "result": "14 ± 10.6", "unit": "ng/mL"}, {"measurement": "concentration at 14 days", "setting": "[2]; infra orbital nerves (IONs), read-out: tacrolimus concentration in IONs", "result": "~196", "unit": "ng/g"}, {"measurement": "concentration at 14 days", "setting": "[2]; muscle, read-out: tacrolimus concentration in muscle", "result": "~172", "unit": "ng/g"}, {"measurement": "concentration at 14 days", "setting": "[3]; left optic nerve", "result": 1700, "unit": "ng/g"}, {"measurement": "concentration at 14 days", "setting": "[3]; left retina", "result": 618, "unit": "ng/g"}, {"measurement": "concentration at 14 days", "setting": "[3]; right optic nerve", "result": 2200, "unit": "ng/g"}, {"measurement": "concentration at 14 days", "setting": "[3]; right retina", "result": 530, "unit": "ng/g"}, {"measurement": "therapeutic trough levels (blood)", "setting": "[4]", "result": "5 to 10", "unit": "ng/mL"}]}]}
